Measurements reported in patent publication US20200237742A1, “Serdexmethylphenidate Conjugates, Compositions And Methods Of Use Thereof” (priority 2018, published 2020).

Key:
[1] = Intravenous pharmacokinetic study (KP415.A03) in recreational stimulant users; conditions: human, in vivo, iv
Protocol: A study was conducted in humans to assess the intravenous abuse potential of serdexmethylphenidate relative to unconjugated d-methylphenidate and placebo in recreational stimulant abusers. This was a Phase 1, randomized, double-blind study in which serdexmethylphenidate and d-methylphenidate were administered intravenously in recreational stimulant users with a history of non-oral abuse. In Part A of the study, subjects (Cohort 1) participated in a dose-escalation phase to determine the optimal dose of intravenous d-methylphenidate based on tolerability and abuse-related pharmacodynamic assessments. […] The doses of serdexmethylphenidate and d-methylphenidate are equivalent with respect to molar amount of d-methylphenidate. FDA-recommended abuse potential measures and blood samples were collected at different times after dosing. Safety assessments were performed throughout the study.

[2] = test system: healthy, nondependent, recreational stimulant users; experiment: Oral abuse potential study, VAS pharmacodynamic assessments; conditions: for Mean Difference Any Effects Emax, B vs E / Mean Difference Bad Effects Emax, B vs E / Mean Difference Feeling Alert/Drowsy Emax, B vs E / Mean Difference Feeling High Emax, B vs E / Mean Difference Good Effects Emax, B vs E / Mean Difference Overall Drug Liking Emax, B vs E / Mean Difference Take Drug Again Emax, B vs E / Mean Difference Drug Liking Emax, B vs E: SDX Cl 240 mg vs placebo
[3] = Focalin XR 80 mg vs SDX Cl 120 mg
[4] = Focalin XR 80 mg vs SDX Cl 240 mg
[5] = SDX Cl 120 mg vs placebo, listed as SDX chloride
[6] = phentermine HCl 60 mg vs SDX Cl 120 mg
[7] = phentermine HCl 60 mg vs SDX Cl 240 mg
[8] = phentermine HCl 60 mg vs SDX Cl 240 mg, listed as SDX chloride

For COC(=O)[C@H](c1ccccc1)[C@H]1CCCCN1C(=O)OC[n+]1cccc(C(=O)N[C@@H](CO)C(=O)O)c1.[Cl-] [serdexmethylphenidate chloride], the AUCinf [1] was 31.0, the AUCinf, GLSM [1] was 28.9 ng·h/mL and the “AUCinf, GLSM Ratio A/B” value [1] was 12.2%. For the same molecule, the AUClast [1] was 25.7, the AUClast, GLSM [1] was 23.8 ng·h/mL and the “AUClast, GLSM Ratio A/B” value [1] was 10.2%. The Cmax [1] was 12.9 ng/mL, the Cmax, GLSM [1] was 12.1 ng/mL and the “Cmax, GLSM Ratio A/B” value [1] was 20.8%. For the same molecule, the T1/2 [1] was 8.23 h, the Tmax [1] was 5.93 min and the “Mean Difference Any Effects Emax, C vs A” value [2, 3] was “statistically lower”. For the same molecule, the “Mean Difference Bad Effects Emax, C vs A” value [2, 3] was “statistically lower”, the “Mean Difference Feeling Alert/Drowsy Emax, C vs A” value [2, 3] was “statistically lower” and the “Mean Difference Feeling High Emax, C vs A” value [2, 3] was “statistically lower”. For the same molecule, the “Mean Difference Good Effects Emax, C vs A” value [2, 3] was “statistically lower”, the “Mean Difference Overall Drug Liking Emax, C vs A” value [2, 3] was “about 4.5” and the “Mean Difference Take Drug Again Emax, C vs A” value [2, 3] was “not statistically significant”. For the same molecule, the “Mean Difference Overall Drug Liking Emax, C vs A” value ([2]; Focalin XR 80 mg vs SDX Cl 120 mg, listed as SDX chloride) was “not statistically significant”, the “Mean Difference Drug Liking Emax, C vs A” value ([2]; Focalin XR 80 mg vs SDX Cl 120 mg, margin 10) was “at least 18.2” and the “Mean Difference Drug Liking Emax, C vs A” value ([2]; Focalin XR 80 mg vs SDX Cl 120 mg, margin 10, listed as SDX chloride) was “statistically significantly lower”. The “Mean Difference Any Effects Emax, C vs B” value [2, 4] was “statistically lower”, the “Mean Difference Bad Effects Emax, C vs B” value [2, 4] was “statistically lower” and the “Mean Difference Feeling Alert/Drowsy Emax, C vs B” value [2, 4] was “statistically lower”. For the same molecule, the “Mean Difference Feeling High Emax, C vs B” value [2, 4] was “statistically lower”, the “Mean Difference Good Effects Emax, C vs B” value [2, 4] was “statistically lower” and the “Mean Difference Overall Drug Liking Emax, C vs B” value [2, 4] was “about 5.0”. The “Mean Difference Take Drug Again Emax, C vs B” value [2, 4] was “not statistically significant”, the “Mean Difference Overall Drug Liking Emax, C vs B” value ([2]; Focalin XR 80 mg vs SDX Cl 240 mg, listed as SDX chloride) was “not statistically significant” and the “Mean Difference Drug Liking Emax, C vs B” value ([2]; Focalin XR 80 mg vs SDX Cl 240 mg, margin 10) was “at least 16.7”. For the same molecule, the “Mean Difference Drug Liking Emax, C vs B” value ([2]; Focalin XR 80 mg vs SDX Cl 240 mg, margin 10, listed as SDX chloride) was “statistically significantly lower”, the “Mean Difference Any Effects Emax, A vs E” value ([2]; SDX Cl 120 mg vs placebo) was 11.0 and the “Mean Difference Bad Effects Emax, A vs E” value ([2]; SDX Cl 120 mg vs placebo) was 1.3. The “Mean Difference Feeling Alert/Drowsy Emax, A vs E” value ([2]; SDX Cl 120 mg vs placebo) was 7.7, the “Mean Difference Feeling High Emax, A vs E” value ([2]; SDX Cl 120 mg vs placebo) was 10.4 and the “Mean Difference Good Effects Emax, A vs E” value ([2]; SDX Cl 120 mg vs placebo) was 12.1. The “Mean Difference Overall Drug Liking Emax, A vs E” value ([2]; SDX Cl 120 mg vs placebo) was 3.8, the “Mean Difference Take Drug Again Emax, A vs E” value ([2]; SDX Cl 120 mg vs placebo) was 2.2 and the “Mean Difference Bad Effects Emax, A vs E” value [2, 5] was “not statistically different”. For the same molecule, the “Mean Difference Feeling Alert/Drowsy Emax, A vs E” value [2, 5] was “statistically higher”, the “Mean Difference Good Effects Emax, A vs E” value [2, 5] was “statistically higher” and the “Mean Difference Overall Drug Liking Emax, A vs E” value [2, 5] was “not statistically different”. For the same molecule, the “Mean Difference Take Drug Again Emax, A vs E” value [2, 5] was “not statistically different”, the “Mean Difference Drug Liking Emax, A vs E” value ([2]; SDX Cl 120 mg vs placebo, margin 11) was 6.8 and the “Mean Difference Drug Liking Emax, A vs E” value ([2]; SDX Cl 120 mg vs placebo, margin 11, listed as SDX chloride) was “not statistically non-inferior”. For the same molecule, the “Drug Liking Emax, Median” value ([2]; SDX Cl 120 mg, bipolar VAS) was 53.0, the “Feeling Alert/Drowsy Emax, Median” value ([2]; SDX Cl 120 mg, bipolar VAS) was 54.0 and the “Overall Drug Liking Emax, Median” value ([2]; SDX Cl 120 mg, bipolar VAS) was 50.0. The “Take Drug Again Emax, Median” value ([2]; SDX Cl 120 mg, bipolar VAS) was 50.0, the “Any Effects Emax, Median” value ([2]; SDX Cl 120 mg, unipolar VAS) was 14.0 and the “Bad Effects Emax, Median” value ([2]; SDX Cl 120 mg, unipolar VAS) was 0.0. The “Feeling High Emax, Median” value ([2]; SDX Cl 120 mg, unipolar VAS) was 7.0, the “Good Effects Emax, Mean” value ([2]; SDX Cl 120 mg, unipolar VAS) was 27.0 and the “Good Effects Emax, Median” value ([2]; SDX Cl 120 mg, unipolar VAS) was 10.0. For the same molecule, the “Mean Difference Any Effects Emax, B vs E” value [2] was 20.5, the “Mean Difference Bad Effects Emax, B vs E” value [2] was 8.6 and the “Mean Difference Feeling Alert/Drowsy Emax, B vs E” value [2] was 11.2. For the same molecule, the “Mean Difference Feeling High Emax, B vs E” value [2] was 18.8, the “Mean Difference Good Effects Emax, B vs E” value [2] was 17.4 and the “Mean Difference Overall Drug Liking Emax, B vs E” value [2] was 3.3. The “Mean Difference Take Drug Again Emax, B vs E” value [2] was 1.7, the “Mean Difference Any Effects Emax, B vs E” value ([2]; listed as SDX chloride) was “statistically higher” and the “Mean Difference Bad Effects Emax, B vs E” value ([2]; listed as SDX chloride) was “statistically higher”. For the same molecule, the “Mean Difference Feeling Alert/Drowsy Emax, B vs E” value ([2]; listed as SDX chloride) was “statistically higher”, the “Mean Difference Feeling High Emax, B vs E” value ([2]; listed as SDX chloride) was “statistically higher” and the “Mean Difference Good Effects Emax, B vs E” value ([2]; listed as SDX chloride) was “statistically higher”. For the same molecule, the “Mean Difference Overall Drug Liking Emax, B vs E” value ([2]; listed as SDX chloride) was “not statistically different”, the “Mean Difference Take Drug Again Emax, B vs E” value ([2]; listed as SDX chloride) was “not statistically different” and the “Mean Difference Drug Liking Emax, B vs E” value ([2]; margin 11) was 8.3. For the same molecule, the “Mean Difference Drug Liking Emax, B vs E” value ([2]; margin 11, listed as SDX chloride) was “not statistically non-inferior”, the “Mean Difference Any Effects Emax, D vs A” value [2, 6] was “statistically lower” and the “Mean Difference Bad Effects Emax, D vs A” value [2, 6] was “statistically lower”. For the same molecule, the “Mean Difference Feeling Alert/Drowsy Emax, D vs A” value [2, 6] was “statistically lower”, the “Mean Difference Feeling High Emax, D vs A” value [2, 6] was “statistically lower” and the “Mean Difference Good Effects Emax, D vs A” value [2, 6] was “statistically lower”. For the same molecule, the “Mean Difference Overall Drug Liking Emax, D vs A” value [2, 6] was “about 14.9”, the “Mean Difference Take Drug Again Emax, D vs A” value [2, 6] was “statistically lower” and the “Mean Difference Overall Drug Liking Emax, D vs A” value ([2]; phentermine HCl 60 mg vs SDX Cl 120 mg, listed as SDX chloride) was “statistically lower”. The “Mean Difference Drug Liking Emax, D vs A” value ([2]; phentermine HCl 60 mg vs SDX Cl 120 mg, margin 10) was “at least 15.5”, the “Mean Difference Drug Liking Emax, D vs A” value ([2]; phentermine HCl 60 mg vs SDX Cl 120 mg, margin 10, listed as SDX chloride) was “statistically significantly lower” and the “Mean Difference Any Effects Emax, D vs B” value [2, 7] was “statistically lower”. The “Mean Difference Bad Effects Emax, D vs B” value [2, 7] was “statistically similar”, the “Mean Difference Feeling Alert/Drowsy Emax, D vs B” value [2, 7] was “statistically lower” and the “Mean Difference Feeling High Emax, D vs B” value [2, 7] was “statistically lower”. The “Mean Difference Good Effects Emax, D vs B” value [2, 7] was “statistically lower”, the “Mean Difference Overall Drug Liking Emax, D vs B” value [2, 7] was “about 15.3” and the “Mean Difference Take Drug Again Emax, D vs B” value [2, 7] was 15.4. The “Mean Difference Overall Drug Liking Emax, D vs B” value [2, 8] was “statistically lower”, the “Mean Difference Take Drug Again Emax, D vs B” value [2, 8] was “statistically lower” and the “Mean Difference Drug Liking Emax, D vs B” value ([2]; phentermine HCl 60 mg vs SDX Cl 240 mg, margin 10) was “at least 14.0”. For the same molecule, the “Mean Difference Drug Liking Emax, D vs B” value ([2]; phentermine HCl 60 mg vs SDX Cl 240 mg, margin 10, listed as SDX chloride) was “not statistically greater than 10 points”.
